Experimental data: PMC12613848, “First in human phase 1 study of DT2216, a selective BCL-xL degrader, in patients with relapsed/refractory solid malignancies” (Journal of Hematology & Oncology, 2025)
Entries after “also recorded” stand apart in the source; their conditions may differ. Read-outs that look alike come from different tables or passages of the source.

Experiment: Plasma pharmacokinetics of DT2216 in patients, phase 1 dose escalation
Assay type: in vivo, human
Details: for ArAUC0−24 (accumulation ratio) / Vd / clearance / half-life / AUC(0-t) / AUC(0-inf) / Cmax / Tmax: plasma; for Vd / clearance / half-life / AUC(0-t) / AUC(0-inf) / Cmax / Tmax: human; for AUC(0-inf): read-out: AUC0−∞; for Cmax: read-out: Cmax; for Tmax: median (min, max)
Method: Dose escalation consisted of the administration of DT2216 intravenously twice weekly at several different doses outlined in protocol attached. The starting dose was 0.04 mg/kg, established based on pre-clinical toxicity studies. Safety was evaluated using CTCAE version 5.0. The initial three dose levels enrolled one patient, following which for dose level 4 and 5, a 3 + 3 design was utilized following a 100% incremental dose increase for dose levels 2 to 5 until the first dose limiting toxicity (DLT) in cycle 1 was observed. Thereafter, a modified Fibonacci sequence was used to define dose escalation increments until the maximum tolerated dose (MTD) was reached as described in protocol. If no dose-limiting toxicity (DLT) was observed during the DLT monitoring period of first 28 days, the next patient was enrolled at the next higher dose level. Dose-limiting toxicities (DLTs) during the first treatment cycle were defined as any Grade 5 toxicity; Grade 4 neutropenia lasting > 7 days; febrile neutropenia; Grade 4 thrombocytopenia or Grade 3 thrombocytopenia with clinically significant hemorrhage or lasting ≥ 7 days; and Grade ≥ 3 non-hematologic toxicities, excluding nausea, vomiting, or diarrhea lasting ≤ 3 days or transient laboratory abnormalities resolving within 72 h. Hepatotoxicity meeting Hy’s law criteria was also considered a DLT. Transient Grade 3–4 electrolyte abnormalities resolving to ≤ Grade 2 within 72 h were not considered DLTs.
Patients were allowed a maximum of two intra-patient dose escalations. Patients received DT2216 by intravenous infusion on days 1 and 4 weekly for at least 4 weeks, with each cycle consisting of a 28-day cycle for a maximum duration of 1 year until disease progression, unacceptable toxicity, or other withdrawal criteria, as listed in the protocol. The extent of disease was evaluated using imaging studies and disease-appropriate tumor markers every 8 weeks from day 1 of the first cycle. RP2D was established based on MTD as well as other relevant data, including clinical signals of activity, PK, and PD data.
Premedication prior to each infusion was at the discretion of the investigator or according to institutional guidelines. Patient assessment and follow-up procedures can be found in the schedule of assessments in this study. The clinical response was evaluated using RECIST v1.1 per protocol. Blood samples were collected for PK analysis before and after post-infusion at defined intervals, along with platelet counts. Exploratory biomarkers include (but are not limited to) the assessment of BCL-XL and VHL levels in peripheral white blood cells (WBC).
Throughout the course of the dose escalation trial, only one dose-limiting toxicity was observed, with grade 4 thrombocytopenia at a dose level of 0.32 mg/kg. […] The pharmacokinetic parameters of DT2216 were determined in patients following doses on Cycle 1 Day 1 and Cycle 1 Day 22 (Tables 4 and 5). […] AUC0-∞ values ranged from 8650 to 72,300 ng · h/mL over the dose range of 0.04 mg/kg 0.4 mg/kg. […] The volume of distribution at steady state (Vss) was small (< 100 mL/kg) and consistent across the dose groups. Following repeated dosing, accumulation of DT2216 in plasma was not observed with twice weekly dosing, with accumulation ratio values ranging from 0.74 to 1.07 on Cycle 1 Day 22 ([…]) across the dose groups.

[1] = iv, 0.04 mg/kg, Cycle 1 Day 1, 0.04 mg/kg IV, mean (CV%), N = 1
[2] = iv, 0.04 mg/kg, Cycle 1 Day 22, 0.04 mg/kg IV BIW, mean (CV%), N = 1
[3] = iv, 0.08 mg/kg, Cycle 1 Day 1, 0.08 mg/kg IV, mean (CV%), N = 1
[4] = iv, 0.08 mg/kg, Cycle 1 Day 22, 0.08 mg/kg IV BIW, mean (CV%), N = 1
[5] = iv, 0.12 mg/kg, Cycle 1 Day 1, 0.12 mg/kg IV, mean (CV%), N = 1

Which results are given for `Cc1ncsc1-c1ccc([C@H](C)NC(=O)[C@@H]2C[C@@H](O)CN2C(=O)[C@@H](NC(=O)CCCCCC(=O)N2CCN(CC[C@H](CSc3ccccc3)Nc3ccc(S(=O)(=O)NC(=O)c4ccc(N5CCN(CC6=C(c7ccc(Cl)cc7)CCC(C)(C)C6)CC5)cc4)cc3S(=O)(=O)C(F)(F)F)CC2)C(C)(C)C)cc1` [DT2216]?
dose proportionality of plasma exposure (AUC) (0.04 to 0.4 mg/kg IV BIW): dose proportional with no dose accumulation; also recorded: dose proportional increase in DT2216 exposure; maximum concentration (0.4 BIW dose): 8590 ng/mL; ArAUC0−24 (accumulation ratio) (Cycle 1 Day 22, 0.04 mg/kg IV BIW, mean (CV%), N = 1): 0.90 (N = 1); ArAUC0−24 (accumulation ratio) (Cycle 1 Day 22, 0.08 mg/kg IV BIW, mean (CV%), N = 1): 0.74 (N = 1); ArAUC0−24 (accumulation ratio) (Cycle 1 Day 22, 0.12 mg/kg IV BIW, mean (CV%), N = 1): 1.07 (N = 1); ArAUC0−24 (accumulation ratio) (Cycle 1 Day 22, 0.24 mg/kg IV BIW, mean (CV%), N = 6): 1.08 (11.6) (N = 6); ArAUC0−24 (accumulation ratio) (Cycle 1 Day 22, 0.32 mg/kg IV BIW, mean (CV%), N = 5): 1.02 (6.7) (N = 5); ArAUC0−24 (accumulation ratio) (Cycle 1 Day 22, 0.4 mg/kg IV BIW, mean (CV%), N = 4): 1.01 (8.7) (N = 4); steady state of plasma concentration (based on pre-dose and 2-hour post infusion plasma concentrations): reached by at least Cycle 1, Day 15; Vd (intravenous, consistent across the dose groups, read-out: volume of distribution at steady state (Vss)): < 0.1 L/kg; clearance (intravenous, over the dose range tested, read-out: clearance values): 0.0683 to 0.132 mL/min/kg; half-life (intravenous, over the dose range tested, independent of dose, read-out: mean half-life): 425 to 768 min; AUC(0-t) (iv, 0.04 mg/kg, Cycle 1 Day 1, 0.04 mg/kg IV, mean (CV%), N = 1, read-out: AUC0−24): 5920 ng·h/mL; AUC(0-inf) [1]: 8650 ng·h/mL; AUC(0-t) (iv, 0.04 mg/kg, Cycle 1 Day 1, 0.04 mg/kg IV, mean (CV%), N = 1, read-out: AUClast): 8470 ng·h/mL; clearance (iv, 0.04 mg/kg, Cycle 1 Day 1, 0.04 mg/kg IV, mean (CV%), N = 1, read-out: CL (converted)): 0.077 mL/min/kg; Cmax [1]: 738 ng/mL; half-life (iv, 0.04 mg/kg, Cycle 1 Day 1, 0.04 mg/kg IV, mean (CV%), N = 1, read-out: T½ (converted)): 768 min; Vd (iv, 0.04 mg/kg, Cycle 1 Day 1, 0.04 mg/kg IV, mean (CV%), N = 1, read-out: Vdss): 0.0776 L/kg; Tmax (iv, 0.04 mg/kg, Cycle 1 Day 1, 0.04 mg/kg IV, N = 1): 0.75 h; AUC(0-t) (iv, 0.04 mg/kg, Cycle 1 Day 22, 0.04 mg/kg IV BIW, mean (CV%), N = 1, read-out: AUC0−24): 5350 ng·h/mL; AUC(0-inf) [2]: 6230 ng·h/mL; AUC(0-t) (iv, 0.04 mg/kg, Cycle 1 Day 22, 0.04 mg/kg IV BIW, mean (CV%), N = 1, read-out: AUClast): 5390 ng·h/mL; clearance (iv, 0.04 mg/kg, Cycle 1 Day 22, 0.04 mg/kg IV BIW, mean (CV%), N = 1, read-out: CL (converted)): 0.107 mL/min/kg; Cmax [2]: 541 ng/mL; half-life (iv, 0.04 mg/kg, Cycle 1 Day 22, 0.04 mg/kg IV BIW, mean (CV%), N = 1, read-out: T½ (converted)): 491 min; Vd (iv, 0.04 mg/kg, Cycle 1 Day 22, 0.04 mg/kg IV BIW, mean (CV%), N = 1, read-out: Vdss): 0.081 L/kg; Tmax (iv, 0.04 mg/kg, Cycle 1 Day 22, 0.04 mg/kg IV BIW, N = 1): 2.5 h; AUC(0-t) (iv, 0.08 mg/kg, Cycle 1 Day 1, 0.08 mg/kg IV, mean (CV%), N = 1, read-out: AUC0−24): 13400 ng·h/mL; AUC(0-inf) [3]: 19500 ng·h/mL; AUC(0-t) (iv, 0.08 mg/kg, Cycle 1 Day 1, 0.08 mg/kg IV, mean (CV%), N = 1, read-out: AUClast): 19100 ng·h/mL; clearance (iv, 0.08 mg/kg, Cycle 1 Day 1, 0.08 mg/kg IV, mean (CV%), N = 1, read-out: CL (converted)): 0.0683 mL/min/kg; Cmax [3]: 1450 ng/mL; half-life (iv, 0.08 mg/kg, Cycle 1 Day 1, 0.08 mg/kg IV, mean (CV%), N = 1, read-out: T½ (converted)): 750 min; Vd (iv, 0.08 mg/kg, Cycle 1 Day 1, 0.08 mg/kg IV, mean (CV%), N = 1, read-out: Vdss): 0.07 L/kg; Tmax (iv, 0.08 mg/kg, Cycle 1 Day 1, 0.08 mg/kg IV, N = 1): 1.5 h; AUC(0-t) (iv, 0.08 mg/kg, Cycle 1 Day 22, 0.08 mg/kg IV BIW, mean (CV%), N = 1, read-out: AUC0−24): 9840 ng·h/mL; AUC(0-inf) [4]: 11700 ng·h/mL; AUC(0-t) (iv, 0.08 mg/kg, Cycle 1 Day 22, 0.08 mg/kg IV BIW, mean (CV%), N = 1, read-out: AUClast): 9910 ng·h/mL; clearance (iv, 0.08 mg/kg, Cycle 1 Day 22, 0.08 mg/kg IV BIW, mean (CV%), N = 1, read-out: CL (converted)): 0.114 mL/min/kg; Cmax [4]: 962 ng/mL; half-life (iv, 0.08 mg/kg, Cycle 1 Day 22, 0.08 mg/kg IV BIW, mean (CV%), N = 1, read-out: T½ (converted)): 518 min; Vd (iv, 0.08 mg/kg, Cycle 1 Day 22, 0.08 mg/kg IV BIW, mean (CV%), N = 1, read-out: Vdss): 0.091 L/kg; Tmax (iv, 0.08 mg/kg, Cycle 1 Day 22, 0.08 mg/kg IV BIW, N = 1): 2.5 h; AUC(0-t) (iv, 0.12 mg/kg, Cycle 1 Day 1, 0.12 mg/kg IV, mean (CV%), N = 1, read-out: AUC0−24): 12900 ng·h/mL; AUC(0-inf) [5]: 18000 ng·h/mL; AUC(0-t) (iv, 0.12 mg/kg, Cycle 1 Day 1, 0.12 mg/kg IV, mean (CV%), N = 1, read-out: AUClast): 17900 ng·h/mL; clearance (iv, 0.12 mg/kg, Cycle 1 Day 1, 0.12 mg/kg IV, mean (CV%), N = 1, read-out: CL (converted)): 0.111 mL/min/kg; Cmax [5]: 3710 ng/mL; half-life (iv, 0.12 mg/kg, Cycle 1 Day 1, 0.12 mg/kg IV, mean (CV%), N = 1, read-out: T½ (converted)): 535 min; Vd (iv, 0.12 mg/kg, Cycle 1 Day 1, 0.12 mg/kg IV, mean (CV%), N = 1, read-out: Vdss): 0.0557 L/kg; Tmax (iv, 0.12 mg/kg, Cycle 1 Day 1, 0.12 mg/kg IV, N = 1): 0.75 h; AUC(0-t) (iv, 0.12 mg/kg, Cycle 1 Day 22, 0.12 mg/kg IV BIW, mean (CV%), N = 1, read-out: AUC0−24): 13900 ng·h/mL; AUC(0-inf) (iv, 0.12 mg/kg, Cycle 1 Day 22, 0.12 mg/kg IV BIW, mean (CV%), N = 1): 14500 ng·h/mL; AUC(0-t) (iv, 0.12 mg/kg, Cycle 1 Day 22, 0.12 mg/kg IV BIW, mean (CV%), N = 1, read-out: AUClast): 13900 ng·h/mL
